Measured values taken from patent US10472677B2, “Translational dysfunction based therapeutics” (Translational Therapeutics, Inc., priority 2005, dated 2019).
pEC50, pKd: −log10 of the molar value.

Columns and labels:
eIF4E wild-type = target: T1, eIF4E wild-type (Mus musculus, UniProt P63073); experiment: tryptophan fluorescence quenching titration of nucleoside/nucleotide binding; settings: fluorescence spectroscopy, wild-type eIF4E; read-out: apparent dissociation constant (Kd) for eIF4E
T1 construct: made in house
Description: For fluorescence titrations, mouse eIF4E, which differs from human eIF4E by four nonconserved amino acids, was produced as described. For NMR spectroscopy, mouse eIF4E was expressed as a fusion with the B1 domain of protein G (G4E, kind gift of Gerhard Wagner, Harvard University, Cambridge, Mass.), in BL21 (DE-3) cells by induction with 0.8 mM isopropyl-β-D-thiogalactopyranoside at 18° C. for 20 h in M9 minimal media containing 1 g/l ^15NH4Cl as the sole nitrogen source (Cambridge Isotopes). Cells were lysed at 4° C. by sonication in 0.1 M NaCl/50 mM Tris.HCl (pH 7.5/0.5 mM EDTA/0.5% (vol/vol) Nonidet P-40/10 mM 2-mercaptoethanol/1 mM PMSF. Lysates were cleared by centrifugation at 30,000×g, adsorbed onto m^7G diphosphate-conjugated agarose (Amersham Pharmacia), and extensively washed with 0.1 M NaCl/20 mM Tris.HCl (pH 7.5)/0.5 mM EDTA (Buffer A) at 4° C. Subsequently, beads were washed with 0.1 mM GTP in Buffer A, and G4E was eluted with 5 mM m^7G in Buffer A. Eluate was diluted with 20 mM Na2PO4 (pH 7.5) to reduce NaCl concentration to 50 mM, applied to Sepharose Q anion exchange column (Amersham Pharmacia), and eluted with a linear gradient of NaCl in 20 mM Na2PO4 (pH 7.5) at 4° C. Eluate was dialyzed extensively against 0.1 M NaCl/50 mM Na2PO4 (pH 6.5)/5 mM DTT at 4° C. to produce apo-G4E, as verified by using NMR spectroscopy and fluorescence titrations. Purity and identity of G4E were verified by using SDS/PAGE and electrospray ionization MS. Proteins were concentrated by using Amicon concentrators (Millipore).
Fluorescence measurements were performed by using a home-built fluorimeter, as described. All titrations were performed in 0.3 M NaCl/10 mM Na2PO4 (pH 7.5)/1 μM zinc in 0.3×0.3 cm^2 fluorescence cuvette (Hellma), by using eIF4E concentration of 2 μM. […] Corrected relative fluorescence intensities were normalized, and fluorescence quenching curves were fit to a heuristic single-site-binding expression: I/I0=Kd^n/(x^n+Kd^n) where x is ligand concentration, Kd is the apparent dissociation constant, and n is the Hill coefficient.

liver metastatic disease = settings: Jeney et al. 2006; cited from earlier work
[1] = system: eIF4E nuclear bodies in NIH 3T3 cells; experiment: subcellular eIF4E organization, confocal immunofluorescence and fractionation/Western; type: cell-based, mouse
Description: NIH 3T3 mouse fibroblasts were maintained under subconfluent conditions in DMEM (GIBCO/BRL)/10% (vol/vol) FBS/2 mM […]/0.1 mg/ml penicillin-streptomycin, at 37° C. in 5% CO2. For cell treatments, drugs were dissolved in PBS (pH 7.4) and filter-sterilized. Untreated cells received filter-sterilized PBS.
Cells were washed with PBS, fixed in methanol for 20 min at −20° C., and blocked in PBS, 10% (vol/vol) FBS, and 0.1% (vol/vol) Tween 20 for 30 min at room temperature. Blocked cells were stained with primary antibodies against Nopp140 [1:50 (2)], Sc35 (1:50, Becton Dickinson), and eIF4E (1:50, Transduction Laboratories) in blocking solution for 3 h at room temperature. Upon washing with PBS, cells were stained with secondary antibodies in blocking solution for 30 min. FITC-conjugated donkey anti-rabbit antibody (Jackson ImmunoResearch), Texas red-conjugated donkey anti-mouse antibody, and FITC-conjugated rabbit anti-mouse antibody, as appropriate. […] Fluorescence was observed by using 100× optical magnification and 2× digital zoom using Leica TCS-SP confocal microscope using excitation wavelengths of 488, 568, or 351/364 nm. All channels were detected separately, with no observable crosstalk. […]
Cells were washed twice with PBS and lysed by slow pipetting in 0.14 M NaCl/10 mM Tris.HCl (pH 8.4)/1.5 mM MgCl2/0.5% (vol/vol) Nonidet P-40/1 mM DTT/100 units/ml RNasin (Promega) at 4° C. […] This yielded intact nuclei, as observed by using light microscopy, with no significant cytoplasmic contamination, as evaluated using tRNA^Lys and β-actin contents. […]
Protein from whole cells or nuclear and cytoplasmic fractions was extracted by using 0.15 M NaCl/50 mM Tris.HCl (pH 7.4)/1% (vol/vol) Nonidet P-40/0.25% (wt/vol) sodium deoxycholate/1 mM EDTA/1 mM PMSF by incubating for 30 min at 4° C. […] Bound antibodies were chemiluminescently detected by using horseradish peroxidase-conjugated secondary antibodies (Amersham Pharmacia) and SuperSignal West Pico reagent according to manufacturer's instructions (Pierce).

T1 sequence (P63073 whole entry): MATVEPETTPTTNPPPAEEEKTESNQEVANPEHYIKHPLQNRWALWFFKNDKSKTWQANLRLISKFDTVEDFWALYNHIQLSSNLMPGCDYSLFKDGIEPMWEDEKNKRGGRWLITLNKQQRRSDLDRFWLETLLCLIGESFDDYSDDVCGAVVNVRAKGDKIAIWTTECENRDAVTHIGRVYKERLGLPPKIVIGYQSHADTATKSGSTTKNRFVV

NC(=O)c1ncn([C@@H]2O[C@H](CO)[C@@H](O)[C@H]2O)n1 [Ribavirin, 1-β-D-ribofuranosyl-1,2,4-triazole-3-carboxamide]
pKd (eIF4E wild-type): 5.08 | effect on liver metastatic disease (liver metastatic disease): reduce liver metastatic disease | pEC50 ([1]; Mus musculus, NIH3T3, NIH 3T3, read-out: EC50 disruption of nuclear eIF4E bodies and cytoplasmic retention of eIF4E): 6.00 to 7.00 | concentration at which disruption of eIF4E nuclear bodies is evident ([1]; NIH 3T3, 48 h): 1 µM | concentration at which disruption of eIF4E nuclear bodies is nearly complete ([1]; NIH 3T3, 48 h): 10 µM
